These results are taken from patent publication US20050226924A1, “Composition comprising itraconazole for oral administration” (priority 2004, published 2005).

Converted amounts (≈) assume the structure as drawn.

For series [1] the following is noted: cited from earlier work.
A short description of series [2]: Solubility test in dissolution medium (pH 1.2). In kind it is physicochemical. To be noted: dissolution medium (pH 1.2) of Korea Pharmacopeia, simulated gastric fluid, thermodynamic from solid; dissolution medium pH 1.2, shaken at 25° C. for 24 hours, HPLC; Mean ± SD, n = 3. The method, then:
Samples, equivalent to 30 mg of itraconazole, was added to […] of the test solution. The test solution used was the dissolution medium (pH 1.2) for dissolution test of Korea Pharmacopeia. After the samples were ultrasonicated for 30 minutes, they were shaked at 25° C. for 24 hours. Then, they were centrifuged at 3000 rpm for 20 minutes. The obtained supernatant was filtered using a 0.45 μm membrane filter, followed by 10-fold dilution with methanol. The content of itraconazole was measured by HPLC.

In the case of `CCC(C)n1ncn(-c2ccc(N3CCN(c4ccc(OCC5COC(Cn6cncn6)(c6ccc(Cl)cc6Cl)O5)cc4)CC3)cc2)c1=O` (racemic) [Itraconazole, (±)-cis-4-[4-[4-[4-[[2-(2,4-dichlorophenyl)-2-(1H-1,2,4-triazole-1-yl-methyl)-1,3-dioxolane-4-yl]methoxy]phenyl]-1-piperazinyl]phenyl]-2,4-dihydro-2-(1-methylpropyl)-3H-1,2,4-triazole-3-one], in series [1] (dichloromethane), the Solubility in dichloromethane is 239000 µg/mL (≈ 339000 µM). Moreover, the Solubility in water result in series [1] (water) is listed as “less than 1 μg/ml”. Besides, in series [2], the concentration in solution (solubility at 24 h) came to 1.5 ± 0.7 µg/mL (≈ 2.13 µM).
